Legend:
[1] = target: T1, Thymidine phosphorylase (Homo sapiens) (UniProt P19971); experiment: Percent inhibition by compound was measured on Human Thymidine Phosphorylase using 100 uM thymine
T1 sequence (whole entry): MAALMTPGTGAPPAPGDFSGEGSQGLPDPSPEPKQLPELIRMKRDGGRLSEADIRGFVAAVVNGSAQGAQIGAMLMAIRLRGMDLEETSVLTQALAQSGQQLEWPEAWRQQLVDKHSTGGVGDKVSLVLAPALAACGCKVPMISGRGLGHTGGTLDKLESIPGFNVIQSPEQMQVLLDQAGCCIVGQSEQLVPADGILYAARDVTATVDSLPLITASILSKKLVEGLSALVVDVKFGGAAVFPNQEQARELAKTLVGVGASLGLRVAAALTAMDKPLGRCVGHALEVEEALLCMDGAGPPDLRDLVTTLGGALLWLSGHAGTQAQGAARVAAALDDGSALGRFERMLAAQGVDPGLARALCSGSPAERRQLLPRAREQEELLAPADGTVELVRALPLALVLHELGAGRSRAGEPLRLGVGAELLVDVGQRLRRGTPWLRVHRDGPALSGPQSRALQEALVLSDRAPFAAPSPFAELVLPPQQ

[2] = target: T2, Thymidine phosphorylase (Homo sapiens, UniProt P19971); experiment: Inhibition of catabolic activity of human thymidine phosphorylase
T2 sequence (P19971 whole entry): T1 sequence (whole entry)

[3] = target: T2, Thymidine phosphorylase; experiment: Inhibition of anabolic activity of human thymidine phosphorylase

Structure (SMILES) | inhibition [1] | IC50 [2] | IC50 [3]
Nc1cc(O)nc(O)n1 | 41% | – | –
O=c1cc(NCc2ccccc2)[nH]c(=O)[nH]1 | – | > 200 µM | –
Oc1cc(NCCc2ccccc2)nc(O)n1 | – | 148 µM | 200 µM

— ChEMBL document CHEMBL1133767, “Novel nonsubstrate inhibitors of human thymidine phosphorylase, a potential target for tumor-dependent angiogenesis” (J Med Chem, 2000)
